Tested on: Phencyclidine (PCP)-induced passive avoidance reaction disorder
Experiment: Phencyclidine (PCP)-induced passive avoidance reaction disorder in rats
Format: in vivo, Wistar male rats
Details: 10 mg/kg oral, 30 min before PCP 2 mg/kg i.p.; test trial 24 hr after acquisition trial; max 300 seconds; versus vehicle group

Cc1oc2nc3c(c(NC(=O)CN4CCCC4=O)c2c1C)CCCC3 [compound A, 2-(2-oxopyrrolidin-1-yl)-N-(2,3-dimethyl-5,6,7,8-tetrahydrofuro[2,3-b]quinolin-4-yl)acetamide]
latent time of test trial (passive avoidance reaction): significantly prolonged the latent time shortened by the PCP administration
